The values below come from PMC8111447 (Frontiers in Pharmacology, 2021).

Holding throughout (test): Kinase panel (Eurofins)
Holding throughout (type): biochemical
What all share (conditions): n = 2; for inhibition at 1 µM: at 1 μmol/L; for IC50: read-out: IC50 kinase inhibition

One test addresses T1, IR(h), activated (Homo sapiens, UniProt P06213).
T1 construct: purchased Eurofins
The text has this: (§1) These receptors have a methionine gatekeeper in their kinase domains, and are related to hyperglycemia in other clinical trials of EGFR TKI, such as Co-1686.

The target in a further test is T2, Flt3 (D835Y) (h) (Homo sapiens, UniProt P36888, D835Y).
T2 construct: purchased Eurofins
T2 sequence (P36888 27-993 D835Y): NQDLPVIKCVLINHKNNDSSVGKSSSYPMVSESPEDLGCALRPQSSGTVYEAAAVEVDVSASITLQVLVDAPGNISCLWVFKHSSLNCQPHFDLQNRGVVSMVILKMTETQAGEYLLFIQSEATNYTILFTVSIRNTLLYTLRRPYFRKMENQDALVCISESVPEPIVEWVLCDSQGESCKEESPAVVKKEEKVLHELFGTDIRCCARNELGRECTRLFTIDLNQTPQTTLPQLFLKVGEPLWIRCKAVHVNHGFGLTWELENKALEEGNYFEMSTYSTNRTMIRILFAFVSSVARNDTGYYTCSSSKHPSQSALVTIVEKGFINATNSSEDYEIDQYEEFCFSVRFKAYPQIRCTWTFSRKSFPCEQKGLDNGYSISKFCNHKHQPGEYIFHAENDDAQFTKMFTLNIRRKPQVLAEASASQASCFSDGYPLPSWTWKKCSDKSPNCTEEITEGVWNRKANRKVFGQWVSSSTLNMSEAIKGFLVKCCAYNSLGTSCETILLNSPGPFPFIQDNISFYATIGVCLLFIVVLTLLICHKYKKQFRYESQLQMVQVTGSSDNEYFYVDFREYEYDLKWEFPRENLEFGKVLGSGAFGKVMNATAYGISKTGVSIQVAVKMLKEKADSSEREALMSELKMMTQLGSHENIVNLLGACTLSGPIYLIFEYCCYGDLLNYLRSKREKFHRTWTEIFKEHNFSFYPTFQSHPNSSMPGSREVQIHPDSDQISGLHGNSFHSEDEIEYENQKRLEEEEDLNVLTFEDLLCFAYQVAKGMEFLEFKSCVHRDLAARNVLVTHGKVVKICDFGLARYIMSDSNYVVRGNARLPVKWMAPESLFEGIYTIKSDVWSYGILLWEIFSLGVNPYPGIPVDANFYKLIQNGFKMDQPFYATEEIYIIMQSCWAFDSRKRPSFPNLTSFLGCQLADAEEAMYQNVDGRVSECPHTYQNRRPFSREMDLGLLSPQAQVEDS
Excerpt: as §1

Another test concerns the target T3, Flt3(h) (Homo sapiens, UniProt P36888).
T3 construct: purchased Eurofins
T3 sequence (P36888 27-993): T2 sequence (P36888 27-993 D835Y) with Y809D
Excerpt: as §1

The target in a further test is T4, Pyk2(h) (Homo sapiens, UniProt Q14289).
T4 construct: purchased Eurofins
T4 sequence (Q14289 whole entry): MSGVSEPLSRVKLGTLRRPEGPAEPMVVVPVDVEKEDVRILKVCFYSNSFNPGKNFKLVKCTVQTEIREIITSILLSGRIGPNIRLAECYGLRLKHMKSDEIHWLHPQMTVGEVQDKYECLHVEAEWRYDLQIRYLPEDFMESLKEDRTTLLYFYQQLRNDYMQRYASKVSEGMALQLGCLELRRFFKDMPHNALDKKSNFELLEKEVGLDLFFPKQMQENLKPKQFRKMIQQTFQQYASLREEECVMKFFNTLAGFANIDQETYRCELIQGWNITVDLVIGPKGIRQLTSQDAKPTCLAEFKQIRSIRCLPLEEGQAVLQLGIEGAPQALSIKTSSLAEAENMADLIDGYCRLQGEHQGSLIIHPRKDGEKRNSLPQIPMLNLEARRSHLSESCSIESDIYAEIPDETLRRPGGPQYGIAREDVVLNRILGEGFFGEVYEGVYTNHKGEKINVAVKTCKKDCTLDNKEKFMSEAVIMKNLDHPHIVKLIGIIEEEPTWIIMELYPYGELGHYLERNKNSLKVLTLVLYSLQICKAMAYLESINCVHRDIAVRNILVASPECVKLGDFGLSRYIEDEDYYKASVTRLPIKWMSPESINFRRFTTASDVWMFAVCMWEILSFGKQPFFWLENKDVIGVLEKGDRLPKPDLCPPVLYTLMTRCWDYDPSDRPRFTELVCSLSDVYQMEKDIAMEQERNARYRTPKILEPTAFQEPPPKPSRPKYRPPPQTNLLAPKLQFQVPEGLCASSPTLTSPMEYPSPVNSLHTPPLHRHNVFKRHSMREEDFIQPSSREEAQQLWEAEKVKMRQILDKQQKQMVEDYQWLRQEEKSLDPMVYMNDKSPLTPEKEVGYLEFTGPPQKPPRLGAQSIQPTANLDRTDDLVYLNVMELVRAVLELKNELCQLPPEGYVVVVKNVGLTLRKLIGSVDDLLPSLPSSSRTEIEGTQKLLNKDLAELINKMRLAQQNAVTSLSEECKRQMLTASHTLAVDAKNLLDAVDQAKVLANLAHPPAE
Excerpt: as §1

The next test addresses T5, LOK(h) (Homo sapiens, UniProt O94804).
T5 construct: purchased Eurofins
Excerpt: as §1

In another test the target is T6, ErbB2(h) (Homo sapiens, UniProt P04626).
T6 construct: purchased Eurofins
T6 sequence (P04626 23-1255): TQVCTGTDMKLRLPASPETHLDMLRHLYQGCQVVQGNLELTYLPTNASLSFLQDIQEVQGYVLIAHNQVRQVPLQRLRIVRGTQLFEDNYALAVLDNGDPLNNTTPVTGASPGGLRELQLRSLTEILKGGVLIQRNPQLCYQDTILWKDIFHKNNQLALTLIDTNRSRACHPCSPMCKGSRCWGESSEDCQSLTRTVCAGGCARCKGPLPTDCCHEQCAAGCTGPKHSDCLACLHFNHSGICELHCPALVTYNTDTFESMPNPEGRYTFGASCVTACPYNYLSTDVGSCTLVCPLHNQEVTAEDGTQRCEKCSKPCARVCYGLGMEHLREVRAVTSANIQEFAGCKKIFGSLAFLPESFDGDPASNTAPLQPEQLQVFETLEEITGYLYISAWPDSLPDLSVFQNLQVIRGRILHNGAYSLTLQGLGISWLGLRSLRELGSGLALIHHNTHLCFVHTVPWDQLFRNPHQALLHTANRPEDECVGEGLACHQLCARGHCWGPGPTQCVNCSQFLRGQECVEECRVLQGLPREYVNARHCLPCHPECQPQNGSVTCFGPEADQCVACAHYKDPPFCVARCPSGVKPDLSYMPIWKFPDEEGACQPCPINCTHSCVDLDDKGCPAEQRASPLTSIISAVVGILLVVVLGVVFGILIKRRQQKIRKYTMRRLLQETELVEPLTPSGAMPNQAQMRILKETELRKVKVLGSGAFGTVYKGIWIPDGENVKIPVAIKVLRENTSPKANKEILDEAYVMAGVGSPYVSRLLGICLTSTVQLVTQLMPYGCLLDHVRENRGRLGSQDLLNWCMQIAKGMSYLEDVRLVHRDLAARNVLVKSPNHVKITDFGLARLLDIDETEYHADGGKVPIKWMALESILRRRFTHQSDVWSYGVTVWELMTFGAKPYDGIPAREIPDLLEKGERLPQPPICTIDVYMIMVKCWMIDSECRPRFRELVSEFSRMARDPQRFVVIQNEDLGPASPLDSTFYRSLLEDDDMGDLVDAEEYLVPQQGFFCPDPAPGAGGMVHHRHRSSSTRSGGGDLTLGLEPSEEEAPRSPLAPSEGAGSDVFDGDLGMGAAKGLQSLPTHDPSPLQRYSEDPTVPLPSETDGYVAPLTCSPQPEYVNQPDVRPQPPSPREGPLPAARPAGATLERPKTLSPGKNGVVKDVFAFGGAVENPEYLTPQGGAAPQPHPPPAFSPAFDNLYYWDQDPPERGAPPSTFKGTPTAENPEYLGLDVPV
Excerpt: as §1

In a further test the target is T7, Flt4(h) (Homo sapiens, UniProt P35916).
T7 construct: purchased Eurofins
Excerpt: as §1

The target of another test is T8, Fer(h) (Homo sapiens, UniProt P16591).
T8 construct: purchased Eurofins
T8 sequence (P16591 whole entry): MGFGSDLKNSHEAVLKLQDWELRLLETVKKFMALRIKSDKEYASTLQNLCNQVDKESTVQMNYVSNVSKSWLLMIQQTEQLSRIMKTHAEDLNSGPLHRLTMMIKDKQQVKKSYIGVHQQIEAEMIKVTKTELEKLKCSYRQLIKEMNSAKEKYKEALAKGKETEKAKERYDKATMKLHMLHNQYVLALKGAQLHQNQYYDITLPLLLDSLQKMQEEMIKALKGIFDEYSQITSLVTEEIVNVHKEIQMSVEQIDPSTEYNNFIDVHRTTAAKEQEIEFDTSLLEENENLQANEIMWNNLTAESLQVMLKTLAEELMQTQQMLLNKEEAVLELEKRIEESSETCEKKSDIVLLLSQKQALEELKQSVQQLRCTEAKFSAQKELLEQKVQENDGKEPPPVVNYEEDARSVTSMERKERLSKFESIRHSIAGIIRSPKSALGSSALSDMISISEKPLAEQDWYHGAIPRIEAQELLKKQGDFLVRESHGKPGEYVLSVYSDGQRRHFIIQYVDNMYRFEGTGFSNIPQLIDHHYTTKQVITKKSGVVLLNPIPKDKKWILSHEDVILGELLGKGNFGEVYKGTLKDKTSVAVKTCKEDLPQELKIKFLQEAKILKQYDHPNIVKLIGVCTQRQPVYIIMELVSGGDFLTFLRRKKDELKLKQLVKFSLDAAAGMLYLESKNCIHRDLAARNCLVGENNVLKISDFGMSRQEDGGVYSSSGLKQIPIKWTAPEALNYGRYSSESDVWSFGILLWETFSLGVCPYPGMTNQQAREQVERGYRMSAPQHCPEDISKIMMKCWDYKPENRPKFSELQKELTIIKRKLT
Excerpt: as §1

A further test concerns the target T9, Mnk2(h) (Homo sapiens, UniProt Q9HBH9).
T9 construct: purchased Eurofins
Excerpt: as §1

A further test has as its target T10, FAK(h) (Homo sapiens, UniProt Q05397).
T10 construct: purchased Eurofins
Excerpt: as §1

The next test has as its target T11, IGF-1R(h) (Homo sapiens, UniProt P08069).
T11 construct: purchased Eurofins
Excerpt: as §1

For a further test, the target named is T12, Ros(h) (Homo sapiens, UniProt P08922).
T12 construct: purchased Eurofins
Excerpt: as §1

Residue numbers refer to the chain shown, from its start.

T1 sequence (P06213 28-1382): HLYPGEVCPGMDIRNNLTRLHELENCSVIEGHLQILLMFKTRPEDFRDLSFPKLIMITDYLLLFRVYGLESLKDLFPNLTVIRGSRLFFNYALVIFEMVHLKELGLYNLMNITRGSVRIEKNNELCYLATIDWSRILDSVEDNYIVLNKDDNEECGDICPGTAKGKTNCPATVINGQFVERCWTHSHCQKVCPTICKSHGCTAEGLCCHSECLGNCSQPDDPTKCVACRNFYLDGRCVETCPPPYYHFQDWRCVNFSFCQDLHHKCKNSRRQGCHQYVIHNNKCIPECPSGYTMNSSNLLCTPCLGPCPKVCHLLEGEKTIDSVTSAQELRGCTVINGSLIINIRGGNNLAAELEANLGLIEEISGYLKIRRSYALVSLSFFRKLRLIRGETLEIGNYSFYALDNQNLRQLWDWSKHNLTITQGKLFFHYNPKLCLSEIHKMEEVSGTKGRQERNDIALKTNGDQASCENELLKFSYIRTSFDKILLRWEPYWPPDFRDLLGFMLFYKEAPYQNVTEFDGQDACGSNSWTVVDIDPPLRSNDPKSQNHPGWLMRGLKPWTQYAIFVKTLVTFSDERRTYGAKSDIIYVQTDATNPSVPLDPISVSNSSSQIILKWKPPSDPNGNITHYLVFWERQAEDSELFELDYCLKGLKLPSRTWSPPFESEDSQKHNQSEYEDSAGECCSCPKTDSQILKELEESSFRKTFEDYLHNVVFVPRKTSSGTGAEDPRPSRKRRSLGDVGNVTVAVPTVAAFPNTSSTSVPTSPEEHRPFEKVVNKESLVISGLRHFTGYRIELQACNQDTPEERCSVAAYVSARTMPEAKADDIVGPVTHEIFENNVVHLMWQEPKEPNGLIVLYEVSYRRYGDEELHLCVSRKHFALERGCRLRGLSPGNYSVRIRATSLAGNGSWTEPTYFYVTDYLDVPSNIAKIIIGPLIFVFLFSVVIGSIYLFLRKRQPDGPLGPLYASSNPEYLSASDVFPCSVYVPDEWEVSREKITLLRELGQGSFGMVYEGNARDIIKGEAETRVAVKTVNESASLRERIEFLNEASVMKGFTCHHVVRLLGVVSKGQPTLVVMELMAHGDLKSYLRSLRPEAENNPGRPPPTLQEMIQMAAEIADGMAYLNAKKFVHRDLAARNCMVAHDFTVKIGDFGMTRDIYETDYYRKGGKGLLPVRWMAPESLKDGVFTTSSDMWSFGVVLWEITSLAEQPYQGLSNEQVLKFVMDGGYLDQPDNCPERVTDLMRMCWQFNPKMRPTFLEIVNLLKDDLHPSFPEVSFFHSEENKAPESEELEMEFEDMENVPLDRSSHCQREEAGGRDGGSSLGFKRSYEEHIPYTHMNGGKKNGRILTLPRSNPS
T9 sequence (Q9HBH9 whole entry): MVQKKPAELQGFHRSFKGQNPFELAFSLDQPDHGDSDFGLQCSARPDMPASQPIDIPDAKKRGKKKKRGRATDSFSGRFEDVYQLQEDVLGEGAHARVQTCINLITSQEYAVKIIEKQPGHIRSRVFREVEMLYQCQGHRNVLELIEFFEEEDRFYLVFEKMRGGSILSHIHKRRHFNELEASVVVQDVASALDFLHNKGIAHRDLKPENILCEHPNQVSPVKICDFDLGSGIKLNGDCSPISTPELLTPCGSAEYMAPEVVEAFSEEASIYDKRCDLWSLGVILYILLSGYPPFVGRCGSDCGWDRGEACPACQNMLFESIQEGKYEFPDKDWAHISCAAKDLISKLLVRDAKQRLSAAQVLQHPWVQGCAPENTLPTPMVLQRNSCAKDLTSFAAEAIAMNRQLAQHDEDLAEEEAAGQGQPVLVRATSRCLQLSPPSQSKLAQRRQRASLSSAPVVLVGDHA

A word on the inhibition: it is the drop in the measured response relative to a control, in per cent. What is called IC50 is the concentration at which inhibition is half-maximal. For `C=CC(=O)Nc1cc(Nc2nccc(-c3c4n(c5ccccc35)CCCC4)n2)c(OC)cc1N(C)CCN(C)C` [SH-1028], the inhibition at 1 µM was determined as 58% against IR(h), activated; 86% against Flt3 (D835Y) (h); 88% against Flt3(h); 73% on Pyk2(h); 24% against LOK(h); 72% against ErbB2(h). Further, the inhibition at 1 µM worked out at 92% on Flt4(h); 45% on Fer(h); 63% at Mnk2(h); 68% at FAK(h); 38% against IGF-1R(h); 96% against Ros(h). Besides, the concentration for half-maximal inhibition (IC50) amounted to 241 nM on IR(h), activated; 78 nM on Flt3 (D835Y) (h); 71 nM on Flt3(h); 228 nM on Pyk2(h); 1950 nM at LOK(h); 55 nM on ErbB2(h). For the same compound, the IC50 amounted to 62 nM at Flt4(h); 542 nM at Fer(h); 23 nM at Mnk2(h); 235 nM at FAK(h); 574 nM on IGF-1R(h); 50 nM on Ros(h).
On to `C=CC(=O)Nc1cc(Nc2nccc(-c3c4n(c5ccccc35)CCCC4)n2)c(OC)cc1N(C)CCNC` [Imp3], for which the inhibition at 1 µM at IR(h), activated is 74%; on Flt3 (D835Y) (h), 99%; against Flt3(h), 97%; against Pyk2(h) it was 83%; against LOK(h), 72%; against ErbB2(h), 83%. For the same compound, the inhibition at 1 µM against Flt4(h) came to 96%; against Fer(h), 80%; at Mnk2(h), 69%; against FAK(h) it was 87%; at IGF-1R(h), 70%; on Ros(h), 98%. Besides, the IC50 on IR(h), activated amounted to 321 nM; on Flt3 (D835Y) (h), 41 nM; on Flt3(h), 45 nM; at Pyk2(h), 227 nM; on LOK(h), 593 nM; on ErbB2(h), 197 nM. Further, the IC50 at Flt4(h) worked out at 104 nM; on Fer(h) it was 452 nM; on Mnk2(h), 22 nM; on FAK(h), 267 nM; at IGF-1R(h) it was 812 nM; on Ros(h) it was 47 nM.
